What was measured:
[1] = tested on: M. tuberculosis XDR strain; format: cell-based, Mycobacterium tuberculosis; settings: infected Raw 264.7 cells, 3 days; effect only at this very high concentration
[2] = tested on: M. tuberculosis XDR strain; format: in vivo, Mycobacterium tuberculosis
[3] = tested on: M. tuberculosis XDR strain; format: in vivo, Mycobacterium tuberculosis; settings: latent model, 30 mg/kg
[4] = tested on: M. tuberculosis H37Rv; test: In vitro macrophage infection model, H37Rv, CFU analysis; format: cell-based, Mycobacterium tuberculosis; settings: infected Raw 264.7 cells, 3 days
[5] = tested on: M. tuberculosis; test: Lung granuloma formation and immune response analysis in both tuberculosis mouse models; format: in vivo, Mycobacterium tuberculosis

Row | Compound | concentration with inhibitory effect against XDR strains [1] | lung species diversity (Shanon-based alpha diversity) ([2]; in vivo) | occupancy of M. tuberculosis in the lungs (16S rRNA gene-based lung metagenomics) compared to the infected control group ([2]; in vivo) | survival rate ([2]; in vivo) | effect on number of M. tuberculosis in the lungs [3] | concentration showing significant effects against H37Rv [4] | granuloma formation in the lungs compared to infected control mice [5] | mortality / survival until the end of the experiment ([2]; Balb/c mice, high-dose XDR lung inhalation, probiotics by lung inhalation)
1 | NNC(=O)c1ccncc1 [INH, isoniazid] | 100 µg/mL | worsened the severity | did not decrease | 16.6% | significantly reduced | 1 μg/mL or 10 μg/mL | no significant reduction | 
2 | CO[C@H]1/C=C/O[C@@]2(C)Oc3c(C)c(O)c4c(O)c(c(/C=N/N5CCN(C)CC5)c(O)c4c3C2=O)NC(=O)/C(C)=C\C=C\[C@H](C)[C@H](O)[C@@H](C)[C@@H](O)[C@@H](C)[C@H](OC(C)=O)[C@@H]1C [RIF, rifampicin] | 100 µg/mL |  |  | 32.2% |  |  |  | 
3 | Lactobacillus |  |  |  |  |  |  |  | died
